A short description of data set [1]: Determination of crystallinity by X-ray diffraction (XRD). The data set is classed as physicochemical. Conditions: raw powder and after evaporation or drowning-out crystallization. As to the method:
XRD measurement conditions and a crystallization method used in this experiment are as follows.
X-ray diffractometer (model name: MiniFlex, Rigaku, Tokyo, Japan/-X-ray generator: graphite monochromatized Cu Kα radiation (λ=1.5418 Å, 2θ range: from 10° to 30° with a step size of 0.02°/−Scanning rate: 1.0°/min)

A short description of data set [2]: Determination of crystallinity by differential scanning calorimetry (DSC). The data set is classed as physicochemical. Conditions: raw powder, heating curves. As to the method:
Differential scanning calorimetry (DSC) was used to identify a difference in crystallinity between cyclosporine A and OND-1 by determining the melting point, glass transition temperature, and recrystallization of the drugs. DSC measurement conditions were as follows.
DSC (model name: DSC Q2000; manufacturer: TA instruments; purging gas: N2 gas (flow: 70 mL/min); heating rate: 5° C./min; isothermal temperature: 10° C./min; cycle number: 1 (from 20° C. to 200° C.)
In general terms: In DSC, transitions show as peaks or steps in heat flow.

Data set [3] is described as follows: Drug remaining at administration site, non-administration site and in blood after topical injection (LC/MS). The format is in vivo, mice (C57BL/6). As to the method:
Specifically, the drug level in blood was determined by a liquid-liquid extraction method using methyl tert-butyl ether (MTBE) and LC/MS analysis. Preparation of skin samples at a targeted site and a non-administration site and the liquid-liquid-phase extraction method using MTBE were the same as in Experimental Example 9. […] After initially increasing the proportion of mobile phase B to 20% for 3 minutes to equilibrate the mobile phase, the flow rate of the mobile phase was 0.4 ml/min and the sample injection volume was 3 μl. In addition, as a mass spectrometer, a 4000 Q TRAP Mass Spectrometer system from Applied Bioscience was used.

Data set [4] is described as follows: Partition coefficient (log P). The data set is classed as physicochemical.
The next data set can be described thus: Solubility in water. The format is physicochemical.
Data set [5] in a line: In-vitro skin penetration and skin deposition (Franz diffusion cell). The data set is classed as in vitro ADME. Conditions: porcine skin, 200 μg OND-1 in 0.2 ml olive oil, 37° C. As to the method: A percutaneous absorption diffusion test (Franz diffusion cell) was conducted to determine skin penetration of position 3-substituted cyclosporine derivatives by topical skin application.
Specifically, frozen porcine skin was thawed, followed by removal of subcutaneous fat from the dermis, and then the skin was cut into a disc shape with a diameter of 3 cm. Then, the skin was mounted in a skin permeation device (Franz diffusion, receptor volume: 5 ml, diffusion area: 0.785 cm^2) with the stratum corneum facing an upper donor chamber and the dermis facing a lower receptor chamber. […] Hourly, 500 μl of a receiving solution (PBS containing 0.2% Tween 80, pH: 7.4) was sampled, followed by replenishment with an equal volume of fresh one.
The position 3-substituted cyclosporine derivative in the sampled solution was subjected to quantitative analysis by HPLC, followed by calculation of the average value of five replicates to determine the permeation amount of the position 3-substituted cyclosporine derivative.
After 24 hours of use, the skin was removed from the skin permeation device, washed several times with ethanol, dried, and tape-stripped (10 times with scotch tape) to completely remove any residual drug from the surface thereof. The collected skin samples were lysed by incubation with collagenase type I (Gibco®) solution at 37° C. for 24 hours. Thereafter, samples were obtained by a liquid-liquid phase extraction method using methyl tert-butyl ether (MTBE), followed by quantitative analysis of the position 3-substituted cyclosporine derivative by HPLC to calculate the quantity of drug deposited in the skin.
Details of the liquid-liquid extraction method are as follows. A 200 μl to 400 μl aliquot of each of the lysed skin samples was dispensed, followed by addition of 1.2 ml of MTBE. After high-speed shaking for 10 minutes, an organic solvent layer (1 ml) was separated by centrifugation (13,000 rpm, 3 minutes) and then dried under nitrogen flow for 10 minutes. Thereafter, the organic solvent layer was dissolved with a reconstituted solvent (75% acetonitrile) and filtered through a syringe filter to obtain a sample for analysis.

Here are results for two molecules from patent US20250276034A1, “RELEASE-CONTROLLED TOPICAL INJECTION COMPOSITION CONTAINING CYCLIC PEPTIDE AND PREPARATION METHOD THEREFOR” (ORIENTBIO INC., priority 2021, published 2025).

≈ marks a conversion by molar mass, not a printed value.

Consider `C/C=C/C[C@@H](C)[C@@H](O)[C@H]1C(=O)N[C@@H](CC)C(=O)N(C)[C@H](SC)C(=O)N(C)[C@@H](CC(C)C)C(=O)N[C@@H](C(C)C)C(=O)N(C)[C@@H](CC(C)C)C(=O)N[C@@H](C)C(=O)N[C@H](C)C(=O)N(C)[C@@H](CC(C)C)C(=O)N(C)[C@@H](CC(C)C)C(=O)N(C)[C@@H](C(C)C)C(=O)N1C` [OND-1, [D-2-methylthio-Sar^3]cyclosporine A], for which the XRD pattern result in data set [1] is “amorphous XRD pattern”. For the same molecule, in data set [2], the “crystallinity by DSC” value is recorded as “amorphous”. Further, in data set [3] (C57BL/6 mice, topical injection of depot solution containing particles of Example 1-B, individual test subjects 1-5), the “Analysis of OND-1 level in systemic blood (μg/ml)” value is recorded as “Not detected”. For the same molecule, in data set [3] (C57BL/6 mice, topical injection of depot solution containing particles of Example 1-B, skin, individual test subjects 1-5), the “Quantity of OND-1 remaining at non-administration site (μg/g)” value is “Not detected”. The “OND-1 detected in the skin at the site of topical administration” value in data set [3] (mice, topical injection) is “highly detected”. In addition, the “OND-1 detected in the surrounding skin or the systemic blood” value in data set [3] (mice, topical injection) is on record as “rarely detected”. Also, the logP (as a rule, a log measure of how a compound divides between an organic and an aqueous phase) in data set [4] was determined as 3.84. Moreover, the concentration in solution in the data set “Solubility in water” (solubility) came to 10 µg/mL (≈ 8.01 µM). Besides, the “Penetration rate (μg/cm^2)” value is given as 1.3 μg/cm^2 in data set [5] (6 hr), 1.1 μg/cm^2 in data set [5] (14 hr), 0.2 μg/cm^2 in data set [5] (20 hr) and 1.1 μg/cm^2 in data set [5] (24 hr).
Consider “Cyclosporine A [CsA, reference compound]”, for which, in data set [1], the XRD pattern entry is given as “crystalline XRD pattern”. The “crystallinity by DSC” value in data set [2] was “crystalline”.
